# Patent publication US11021486B2, “Coumarin-like cyclic compound as MEK inhibitor and use thereof” (CSTONE PHARMACEUTICALS, priority 2017, dated 2021)
# Where two headings read alike, the source gives them in different places.
# What was measured:
# activated MEK1 = biological target: T1, activated MEK1 (Homo sapiens, UniProt Q02750); test: MEK Lance Ultra experiment; assay type: biochemical; settings: 0.07 nM activated MEK1, 2 nM non-activated ERK, 50 μM ATP; read-out: MEK potency IC50
# T1 construct: purchased Millipore 14-429
# Experimental: Biological Test Method 1: MEK Lance Ultra Experiment Compounds were serially diluted three-fold to 10 concentrations, two duplicates were set. Final test concentrations of the compounds ranged from 10 μM to 0.51 nM. 0.07 nM activated MEK1 (Millipore #14-429) and 2 nM non-activated ERK (Millipore #14-515) were mixed with the compounds or DMSO, the mixture was incubated at 23° C. for 30 minutes. Then 50 nM ULight labeled MBP (PerkinElmer #TRF0109-M) and 50 μM ATP (Invitrogen #PV3227) were added to initiate the reaction, and the mixture was incubated at 23° C. for 90 minutes. After the reaction was stopped by adding EDTA at a final concentration of 15 mM, 2 nM Eu-labeled anti-phosphorylated antibody (PerkinElmer #TRF0201-M) was added and incubated for 1 hour. The fluorescence signal data (excitation band: 320 nm; emission band: 665 nM/615 nM) was determined by an Envision microplate reader (PerkinElmer). XLfit5 software was used for data analysis and mapping.
# HT29 cells = test: Cell viability experiment (Cell Titer-Glo), HT29; assay type: cell-based, human
# Experimental: (§1) Biological Test Method 2: Cell Viability Experiment
# (§2) HT29 and A375 cells were plated in a 96-well cell culture plate at a density of 40,000 cells/well and 20,000 cells/well respectively, and the cells were cultured overnight. The compounds were serially diluted in a gradient of 1:3, the dilutions were added to the cell culture medium, and incubated with the cells in a 37° C. incubator for 3 days. The 96-well cell culture plate was taken from the incubator and equilibrated at room temperature for 30 minutes, then Cell Titer-Glo reagent (Promega Cat #G7573) was added at a ratio of 1:2, and the mixture was mixed thoroughly on a shaker for 2 minutes to promote cell lysis. The cell culture plate was incubated at room temperature for 10 minutes and then read on an Envision microplate reader (PerkinElmer). XLfit5 software was used for data analysis and mapping.
# A375 cells = test: Cell viability experiment (Cell Titer-Glo), A375; assay type: cell-based
# Experimental: as §1, §2
# [1] = Homo sapiens, HT-29, 72 h, HT29 cells, 3 days incubation; read-out: HT29 IC50
# [2] = Homo sapiens, A-375, 72 h, A375 cells, 3 days incubation; read-out: A375 IC50
# [3] = read-out: HT29 IC50; HT29 cells, 3 days incubation
# [4] = read-out: A375 IC50; A375 cells, 3 days incubation
# [5] = HT29 cells, 3 days incubation; read-out: HT29 IC50
# [6] = A375 cells, 3 days incubation; read-out: A375 IC50
# T1 sequence (Q02750 whole entry): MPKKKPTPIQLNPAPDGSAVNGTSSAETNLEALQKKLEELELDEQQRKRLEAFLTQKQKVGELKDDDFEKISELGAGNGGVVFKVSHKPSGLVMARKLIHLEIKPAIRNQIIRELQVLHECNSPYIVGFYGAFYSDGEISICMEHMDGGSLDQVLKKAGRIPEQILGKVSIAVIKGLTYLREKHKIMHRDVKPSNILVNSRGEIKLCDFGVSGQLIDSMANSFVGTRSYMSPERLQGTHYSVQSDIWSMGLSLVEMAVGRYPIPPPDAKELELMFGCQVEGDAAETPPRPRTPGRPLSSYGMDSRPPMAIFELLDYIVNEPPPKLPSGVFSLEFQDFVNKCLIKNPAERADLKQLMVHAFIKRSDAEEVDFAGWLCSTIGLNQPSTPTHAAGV
SMILES,IC50 (activated MEK1) [nM],IC50 (HT29 cells; [1]) [nM],IC50 (A375 cells; [2]) [nM],IC50 (HT29 cells; [5]) [nM],IC50 (A375 cells; [6]) [nM],IC50 (HT29 cells; [3]) [nM],IC50 (A375 cells; [4]) [nM]
COCCn1c(C)cc2oc(=O)c(C)c(Nc3ccc(I)cc3F)c2c1=O [WX060],86.4,115,66.9,,,,
"Cc1c(Nc2ccc(I)cc2F)c2c(=O)n(C3CC3)c(C)c(-c3cccc(NS(C)(=O)=O)c3Cl)c2oc1=O (single isomer, unassigned) [WX117]",424,,,,,18.7,7.18
Cc1c(Nc2ccc(I)cc2F)c2c(=O)n(C3CC3)c(C)c(-c3cccc(CS(=O)(=O)CCO)c3)c2oc1=O [WX100],114,6.84,2.11,,,,
CCc1c(Nc2ccc(I)cc2F)c2c(=O)n(C3CC3)c(C)c(-c3cccc(CS(C)(=O)=O)c3C)c2oc1=O [WX110],93.6,207,94.5,,,,
Cc1c(Nc2ccc(I)cc2F)c2c(=O)n(C3CC3)c(C)c(-c3cccc(NC(=O)NC(C)(C)C)c3)c2oc1=O [WX104],119,28.1,10.4,,,,
"Cc1c(Nc2ccc(I)cc2F)c2c(=O)n(C3CC3)c(C)c(-c3cccc(C[S+](C)[O-])c3)c2oc1=O (single isomer, unassigned) [WX083]",146,10.5,8.62,,,,
CC(=O)NCc1cccc(-c2c(C)n(C3CC3)c(=O)c3c(Nc4ccc(I)cc4F)c(C)c(=O)oc23)c1 [WX069],41.6,40.3,6.63,,,,
Cc1c(Nc2ccc(I)cc2F)c2c(=O)n(C3CC3)c(C)c(-c3cccc(CN(C)C)c3)c2oc1=O [WX098],28.5,90.3,11.9,,,,
Cc1c(CS(C)(=O)=O)cccc1-c1c(C)n(C)c(=O)c2c(Nc3ccc(I)cc3F)c(C)c(=O)oc12 [WX109],119,90.7,29.2,,,,
Cc1ccccc1-c1c(C)n(C2CC2)c(=O)c2c(Nc3ccc(I)cc3F)c(C)c(=O)oc12 [WX111],14.4,14.9,3.56,,,,
Cc1c(Nc2ccc(I)cc2F)c2c(=O)n(C3CC3)c(C)c(-c3cccc(NS(=O)(=O)C(C)(C)C)c3)c2oc1=O [WX095],48.6,1.77,0.79,,,,
Cc1c(Nc2ccc(I)cc2F)c2c(=O)n(C3CC3)c(C)c(Cc3cccc(N)c3)c2oc1=O [WX101],17.4,12.6,1.76,,,,
COCCNc1cccc(-c2c(C)n(C3CC3)c(=O)c3c(Nc4ccc(I)cc4F)c(C)c(=O)oc23)c1 [WX087],152,23.7,9.42,,,,
"Cc1[nH]c(=O)c2c(Nc3ccc(I)cc3F)c(C)c(=O)oc2c1-c1cccc(NS(C)(=O)=O)c1C (single isomer, unassigned) [WX119]",18.2,,,19.3,5.85,,
CC(=O)Nc1cccc(-c2c(C)[nH]c(=O)c3c(Nc4ccc(I)cc4F)c(C)c(=O)oc23)c1 [WX049],67,7.4,3.08,,,,
Cc1c(Nc2ccc(I)cc2F)c2c(=O)n(C3CC3)c(C)c(-c3cccc(CNS(C)(=O)=O)c3)c2oc1=O [WX088],45.4,4.59,2.13,,,,
CC(=O)Nc1cccc(-c2c(C)n(C3CCOCC3)c(=O)c3c(Nc4ccc(I)cc4F)c(C)c(=O)oc23)c1 [WX059],32.4,923,1650,,,,
"Cc1c(Nc2ccc(I)cc2F)c2c(=O)n(C3CC3)c(C)c(-c3cccc(NS(C)(=O)=O)c3Cl)c2oc1=O (single isomer, unassigned) [WX116]",34.5,,,,,0.82,0.39

# More lines, in order of falling IC50 (activated MEK1), values ahead:
IC50 (activated MEK1) [nM],IC50 (HT29 cells; [1]) [nM],IC50 (A375 cells; [2]) [nM],IC50 (HT29 cells; [5]) [nM],IC50 (A375 cells; [6]) [nM],SMILES,IC50 (HT29 cells; [3]) [nM],IC50 (A375 cells; [4]) [nM]
581,101,52.6,,,CC(=O)Nc1ccc(F)c(-c2c(C)n(C3CC3)c(=O)c3c(Nc4ccc(I)cc4F)c(C)c(=O)oc23)c1 [WX048],,
581,64.1,69.7,,,CC(=O)Nc1cccc(-c2c(C)n(C)c(=O)c3c(Nc4ccc(I)cc4F)c(C)c(=O)oc23)c1 [WX040],,
282,16.2,8.19,,,Cc1c(Nc2ccc(I)cc2F)c2c(=O)n(C3CC3)c(C)c(-c3ccnc(NS(C)(=O)=O)c3)c2oc1=O [WX105],,
178,8.96,7.54,,,Cc1c(Nc2ccc(I)cc2F)c2c(=O)n(C3CC3)c(C)c(-c3cccc(CNS(N)(=O)=O)c3)c2oc1=O [WX092],,
176,,,17.4,6.18,"Cc1c(Nc2ccc(I)cc2F)c2c(=O)n(C3CC3)c(C)c(-c3cccc(C[S+](C)[O-])c3)c2oc1=O (single isomer, unassigned) [WX084]",,
118,9.34,4.65,,,Cc1c(Nc2ccc(I)cc2F)c2c(=O)n(C3CC3)c(C)c(-c3cccc(NC(=O)N4CCOCC4)c3)c2oc1=O [WX085],,
110,23.4,8.8,,,Cc1c(Nc2ccc(I)cc2F)c2c(=O)n(C3CC3)c(C)c(-c3cccc(NCCO)c3)c2oc1=O [WX093],,
105,13,5.26,,,COC(OC)C(=O)Nc1cccc(-c2c(C)n(C3CC3)c(=O)c3c(Nc4ccc(I)cc4F)c(C)c(=O)oc23)c1 [WX081],,
92.8,9.19,3.27,,,Cc1c(Nc2ccc(I)cc2F)c2c(=O)n(CC(O)CO)c(C)cc2oc1=O (stereo not drawn) [WX053],,
83,102,91.1,,,CC(=O)Nc1cccc(-c2c(C)n(CC(O)CO)c(=O)c3c(Nc4ccc(I)cc4F)c(C)c(=O)oc23)c1 (stereo not drawn) [WX058],,
81.5,334,484,,,CNCCn1c(C)c(-c2cccc(NC(C)=O)c2)c2oc(=O)c(C)c(Nc3ccc(I)cc3F)c2c1=O [WX054],,
71.1,978,643,,,CC(=O)Nc1cccc(-c2c(C)n(CCN(C)S(C)(=O)=O)c(=O)c3c(Nc4ccc(I)cc4F)c(C)c(=O)oc23)c1 [WX055],,
68,745,631,,,COCCCn1c(C)c(-c2cccc(NC(C)=O)c2)c2oc(=O)c(C)c(Nc3ccc(I)cc3F)c2c1=O [WX062],,
61.1,1.32,0.47,,,Cc1c(Nc2ccc(I)cc2F)c2c(=O)n(C3CC3)c(C)c(-c3cccc(NS(=O)(=O)C4CC4)c3)c2oc1=O [WX089],,
57.5,446,442,,,COCCn1c(C)c(-c2cccc(NC(C)=O)c2)c2oc(=O)c(C)c(Nc3ccc(I)cc3F)c2c1=O [WX061],,
52.9,20.3,6.04,,,Cc1c(Nc2ccc(I)cc2F)c2c(=O)n(C3CC3)c(C)c(-c3cccc(C(N)=O)c3)c2oc1=O [WX112],,
52,4.27,1.61,,,CC(=O)Nc1cccc(-c2c(C)n(C3CC3)c(=O)c3c(Nc4ccc(I)cc4F)c(C)c(=O)oc23)n1 [WX039],,
49.1,12.4,4.72,,,CNC(=O)Nc1cccc(-c2c(C)n(C3CC3)c(=O)c3c(Nc4ccc(I)cc4F)c(C)c(=O)oc23)c1 [WX099],,
48.9,20.3,6.58,,,Cc1c(Nc2ccc(I)cc2F)c2c(=O)n(C3CC3)c(C)c(-c3cccc(NC(N)=O)c3)c2oc1=O [WX103],,
45.2,18.9,5.47,,,COC(=O)Nc1cccc(-c2c(C)n(C3CC3)c(=O)c3c(Nc4ccc(I)cc4F)c(C)c(=O)oc23)c1 [WX094],,
44.3,69,33.6,,,CC(=O)Nc1ccc(C)c(-c2c(C)n(C3CC3)c(=O)c3c(Nc4ccc(I)cc4F)c(C)c(=O)oc23)c1 [WX036],,
40.3,15.7,5.09,,,CC(=O)Nc1cncc(-c2c(C)n(C3CC3)c(=O)c3c(Nc4ccc(I)cc4F)c(C)c(=O)oc23)n1 [WX115],,
36.2,7.38,4.31,,,Cc1c(Nc2ccc(I)cc2F)c2c(=O)n(C3CC3)c(C)c(-c3cccc(NC(=O)C4COC4)c3)c2oc1=O [WX065],,
35,9.77,3.66,,,Cc1c(Nc2ccc(I)cc2F)c2c(=O)n(C3CC3)c(C)c(-c3cccc(C[S+](C)[O-])c3)c2oc1=O (stereo not drawn) [WX068],,
32.7,,,1.76,0.41,"Cc1[nH]c(=O)c2c(Nc3ccc(I)cc3F)c(C)c(=O)oc2c1-c1cccc(NS(C)(=O)=O)c1C (single isomer, unassigned) [WX118]",,
29.5,105,17.2,,,CNCc1cccc(-c2c(C)n(C3CC3)c(=O)c3c(Nc4ccc(I)cc4F)c(C)c(=O)oc23)c1 [WX097],,
